Experimental findings from patent EP4775586A1, “DEUTERATED TETRACYCLIC DERIVATIVE AND USE THEREOF” (priority 2023, dated 2025) are described below.

≈ marks a conversion by molar mass, not a printed value. Structures can show the parent of a compound that is named as a salt. Some results are limits rather than exact numbers.

A word on the MIC90: it is an inhibitory concentration at the 90% level, which refers to growth in some studies and to a panel of isolates in others.

One test concerns Mycobacterium tuberculosis H37Rv. Description: Minimum inhibitory concentration (MIC90) against Mycobacterium tuberculosis H37Rv, Middlebrook 7H9, 96-well plate, 15 days. The format is cell-based. As to conditions: 360 h; Mycobacterium tuberculosis H37Rv, 15 days of incubation, 90% inhibition of growth, visual reading; read-out: MIC90.
In the case of `[2H]C([2H])(c1c(O)ccc2oc3c(c12)C(=O)OCc1cc(O)ccc1-3)N1CCC(c2cccc(Cl)c2)CC1` [YF006, 8-((4-(3-Chlorophenyl)piperidin-1-yl)methyl-d2)-3,9-dihydroxybenzo[5,6]oxepino[4,3-b]benzofuran-7(5H)-one], the MIC90 worked out at 0.125 µg/mL (≈ 0.254 µM). Still for that read-out and setting: the value for `[2H]C1([2H])CC(c2cccc(Cl)c2)CC([2H])([2H])N1Cc1c(O)ccc2oc3c(c12)C(=O)OCc1cc(O)ccc1-3` [YF007, 8-((4-(3-Chlorophenyl)piperidin-1-yl-2,2,6,6-d4)methyl)-3,9-dihydroxybenzo[5,6]oxepino[4,3-b]benzofuran-7(5H)-one] was 0.125 µg/mL (≈ 0.253 µM); that for `[2H]C1([2H])CC(c2cccc(Cl)c2)CC([2H])([2H])N1C([2H])([2H])c1c(O)ccc2oc3c(c12)C(=O)OCc1cc(O)ccc1-3` [YF008, 8-((4-(3-Chlorophenyl)piperidin-1-yl-2,2,6,6-d4)methyl-d2)-3,9-dihydroxybenzo[5,6]oxepino[4,3-b]benzofuran-7(5H)-one] was 0.0625 µg/mL (≈ 0.126 µM). On the same count and under the same terms, the same measure for `[2H]c1c(O)c(C([2H])([2H])N2C([2H])([2H])CC(c3cccc(Cl)c3)CC2([2H])[2H])c2c3c(oc2c1[2H])-c1ccc(O)cc1C([2H])([2H])OC3=O` [YF009, 8-((4-(3-Chlorophenyl)piperidin-1-yl-2,2,6,6-d4)methyl-d2)-3,9-dihydroxybenzo[5,6]oxepino[4,3-b]benzofuran-7(5H)-one-5,5,10,11-d4]: 0.125 µg/mL (≈ 0.25 µM); for `[2H]C([2H])(CC)C(=O)C1([2H])CCN(Cc2c(O)ccc3oc4c(c23)C(=O)OCc2cc(O)ccc2-4)CC1` [YF011, 8-((4-(Butanoyl-2,2-d2)piperidin-1-yl-4-d)methyl)-3,9-dihydroxybenzo[5,6]oxepino[4,3-b]benzofuran-7(5H)-one]: 0.0625 µg/mL (≈ 0.138 µM).

Regarding `[2H]C1([2H])CC(C(=O)CCC)CC([2H])([2H])N1C([2H])([2H])c1c(O)ccc2oc3c(c12)C(=O)OCc1cc(O)ccc1-3` [YF012, 8-((4-Butanoylpiperidin-1-yl-2,2,6,6-d4)-methyl-d2)-3,9-dihydroxybenzo[5,6]oxepino[4,3-b]benzofuran-7(5H)-one], the MIC90 turned out to be 0.0312 µg/mL (≈ 0.0686 µM). The same measure, in the same setting: the value for `[2H]c1c(O)c(C([2H])([2H])N2C([2H])([2H])CC(C(=O)CCC)CC2([2H])[2H])c2c3c(oc2c1[2H])-c1ccc(O)cc1C([2H])([2H])OC3=O` [YF013, 8-((4-Butanoylpiperidin-1-yl-2,2,6,6-d4)-methyl-d2)-3,9-dihydroxybenzo[5,6]oxepino[4,3-b]benzofuran-7(5H)-one-5,5,10,11-d4] was 0.0625 µg/mL (≈ 0.136 µM); that for `[2H]C([2H])(c1c(O)ccc2oc3c(c12)C(=O)OCc1cc(O)ccc1-3)N1CCC(C(O)CCC)CC1` (stereo not shown) [YF015, 3,9-Dihydroxy-8-((4-(1-hydroxybutyl)piperidin-1-yl)methyl-d2)benzo[5,6]oxepino[4,3-b]benzofuran-7(5H)-one] was 0.0156 µg/mL (≈ 0.0344 µM); that for `[2H]C(O)(CCC)C1CCN(C([2H])([2H])c2c(O)ccc3oc4c(c23)C(=O)OCc2cc(O)ccc2-4)CC1` (stereo not shown) [YF016, 3,9-Dihydroxy-8-((4-(1-hydroxybutyl-1-d)piperidin-1-yl)methyl-d2)benzo[5,6]oxepino[4,3-b]benzofuran-7(5H)-one] was 0.0156 µg/mL (≈ 0.0343 µM). Same read-out and setting: the same measure for `[2H]C([2H])(CC)C(O)C1([2H])CCN(Cc2c(O)ccc3oc4c(c23)C(=O)OCc2cc(O)ccc2-4)CC1` (stereo not shown) [YF017, 3,9-Dihydroxy-8-((4-(1-hydroxybutyl-2,2-d2)piperidin-1-yl-4-d)methyl)benzo[5,6]oxepino[4,3-b]benzofuran-7(5H)-one]: 0.0156 µg/mL (≈ 0.0343 µM). Still for that read-out and setting: the value for `[2H]C([2H])(CC)C([2H])(O)C1([2H])CCN(Cc2c(O)ccc3oc4c(c23)C(=O)OCc2cc(O)ccc2-4)CC1` (stereo not shown) [YF018, 3,9-Dihydroxy-8-((4-(1-hydroxybutyl-1,2,2-d3)piperidin-1-yl-4-d)methyl)benzo[5,6]oxepino[4,3-b]benzofuran-7(5H)-one] was 0.0156 µg/mL (≈ 0.0342 µM).

Still in this test, the particulars now being: H37RV, 360 h.
Consider `[2H]c1c(O)c(C([2H])([2H])N2C([2H])([2H])CC(C(O)CCC)CC2([2H])[2H])c2c3c(oc2c1[2H])-c1ccc(O)cc1C([2H])([2H])OC3=O` (stereo not shown) [YF021, 3,9-Dihydroxy-8-((4-(1-hydroxybutyl)piperidin-2,2,6,6-d4-1-yl)methyl-d2)benzo[5,6]oxepino[4,3-b]benzofuran-7(5H)-one-5,5,10,11-d4], for which the MIC90 was 0.0156 µg/mL (≈ 0.0338 µM). Still for that read-out and setting: the same measure for `[2H]c1c(O)c(C([2H])([2H])N2C([2H])([2H])CC(C([2H])(O)CCC)CC2([2H])[2H])c2c3c(oc2c1[2H])-c1ccc(O)cc1C([2H])([2H])OC3=O` (stereo not shown) [YF022, 3,9-Dihydroxy-8-((4-(1-hydroxybutyl-1-d)piperidin-2,2,6,6-d4-1-yl)methyl-d2)benzo[5,6]oxepino[4,3-b]benzofuran-7(5H)-one-5,5,10,11-d4]: 0.0156 µg/mL (≈ 0.0337 µM); for `[2H]c1c(O)c(C([2H])([2H])N2CCC([2H])(C(O)C([2H])([2H])CC)CC2)c2c3c(oc2c1[2H])-c1ccc(O)cc1C([2H])([2H])OC3=O` (stereo not shown) [YF023, 3,9-Dihydroxy-8-((4-(1-hydroxybutyl-2,2-d2)piperidin-1-yl-1-d)methyl-d2)benzo[5,6]oxepino[4,3-b]benzofuran-7(5H)-one-5,5,10,11-d4]: 0.0156 µg/mL (≈ 0.0339 µM).

With `[2H]c1c(O)c(C([2H])([2H])N2CCC([2H])(C([2H])(O)C([2H])([2H])CC)CC2)c2c3c(oc2c1[2H])-c1ccc(O)cc1C([2H])([2H])OC3=O` (stereo not shown) [YF024, 3,9-Dihydroxy-8-((4-(1-hydroxybutyl-1,2,2-d3)piperidin-1-yl-1-d)methyl-d2)benzo[5,6]oxepino[4,3-b]benzofuran-7(5H)-one-5,5,10,11-d4], the MIC90 was 0.0156 µg/mL (≈ 0.0338 µM).

Staying with this test, now noted: Mycobacterium tuberculosis H37Rv, 15 days of incubation, 90% inhibition of growth, visual reading.
“3,9-Dihydroxy-8-((4-(1-hydroxybutyl-1-d)piperidin-1-yl)methyl-d2)benzo[5,6]oxepino[4,3-b]benzofuran-7(5H)-one hydrochloride [YF040]” gave an MIC90 of 0.0156 µg/mL. The same measure, in the same setting: the same measure for “8-((4-(Butanoyl-2,2-d2)piperidin-1-yl-4-d)methyl-d2)-3,9-dihydroxybenzo[5,6]oxepino[4,3-b]benzofuran-7(5H)-one-5,5,10,11-d4 hydrochloride [YF038]”: 0.0625 µg/mL; for “8-((4-(Butanoyl-2,2-d2)piperidin-1-yl-4-d)methyl-d2)-3,9-dihydroxybenzo[5,6]oxepino[4,3-b]benzofuran-7(5H)-one-5,5, 10,11-d4 [YF014]”: 0.0625 µg/mL; for `[2H]C1([2H])CC(C(O)CCC)CC([2H])([2H])N1C([2H])([2H])c1c(O)ccc2oc3c(c12)C(=O)OCc1cc(O)ccc1-3` (stereo not shown) [YF019, 3,9-Dihydroxy-8-((4-(1-hydroxybutyl)piperidin-2,2,6,6-d4-1-yl)methyl)benzo[5,6]oxepino[4,3-b]benzofuran-7(5H)-one]: 0.0078 µg/mL (≈ 0.017 µM).

The same test, now with this note: Mycobacterium tuberculosis, H37RV, 360 h, Mycobacterium tuberculosis H37Rv, 15 days of incubation, 90% inhibition of growth, visual reading.
Consider `[2H]C([2H])(c1c(O)cc(C(C)(C)C)c2oc3c4ccc(O)cc4oc(=O)c3c12)N1CCCCC1` [YF001, 10-(tert-Butyl)-3,8-dihydroxy-7-(piperidin-1-ylmethyl-d2)-6H-benzofuran[3,2-c]chromen-6-one], for which the MIC90 is not above 0.0039 µg/mL.

Compound `[2H]C1([2H])CCCC([2H])([2H])N1Cc1c(O)cc(C(C)(C)C)c2oc3c4ccc(O)cc4oc(=O)c3c12` [YF002, 10-(tert-Butyl)-3,8-dihydroxy-7-((piperidin-1-yl-2,2,6,6-d4)methyl)-6H-benzofuran[3,2-c]chromen-6-one] came in with an MIC90 not above 0.0039 µg/mL. The same measure, in the same setting: the same measure for `[2H]C1([2H])CCCC([2H])([2H])N1C([2H])([2H])c1c(O)cc(C(C)(C)C)c2oc3c4ccc(O)cc4oc(=O)c3c12` [YF003, 10-(tert-Butyl)-3,8-dihydroxy-7-((piperidin-1-yl-2,2,6,6-d4)methyl-d2)-6H-benzofuran[3,2-c]chromen-6-one]: not above 0.0039 µg/mL; for `[2H]C1([2H])N(Cc2c(O)cc(C(C)(C)C)c3oc4c5ccc(O)cc5oc(=O)c4c23)C([2H])([2H])C([2H])([2H])C([2H])([2H])C1([2H])[2H]` [YF004, 10-(tert-Butyl)-3,8-dihydroxy-7-((piperidin-1-yl-d10)methyl)-6H-benzofuran[3,2-c]chromen-6-one]: not above 0.0039 µg/mL; for `[2H]C([2H])(c1c(O)cc(C(C)(C)C)c2oc3c4ccc(O)cc4oc(=O)c3c12)N1C([2H])([2H])C([2H])([2H])C([2H])([2H])C([2H])([2H])C1([2H])[2H]` [YF005, 10-(tert-Butyl)-3,8-dihydroxy-7-((piperidin-1-yl-d10)methyl-d2)-6H-benzofuran[3,2-c]chromen-6-one]: not above 0.0039 µg/mL. The compound `[2H]C([2H])(c1c(O)ccc2oc3c(c12)C(=O)OCc1cc(O)ccc1-3)N1CCC(C(=O)CCC)CC1` [YF010, 8-((4-Butanoyl)piperidin-1-ylmethyl-d2)-3,9-dihydroxybenzo[5,6]oxepino[4,3-b]benzofuran-7(5H)-one] had an MIC90 of 0.0625 µg/mL (≈ 0.138 µM). On the same count and under the same terms, the value for `[2H]C(O)(CCC)C1CC([2H])([2H])N(C([2H])([2H])c2c(O)ccc3oc4c(c23)C(=O)OCc2cc(O)ccc2-4)C([2H])([2H])C1` (stereo not shown) [YF020, 3,9-Dihydroxy-8-((4-(1-hydroxybutyl-1-d)piperidin-2,2,6,6-d4-1-yl)methyl)benzo[5,6]oxepino[4,3-b]benzofuran-7(5H)-one] was 0.0156 µg/mL (≈ 0.034 µM); that for `[2H]C1([2H])CC(C(O)CCC)CC([2H])([2H])N1C([2H])([2H])c1c(O)ccc2oc3c(c12)C(=O)OCc1cc(O)ccc1-3` (stereo not shown) [YF043, 3,9-Dihydroxy-8-((4-(1-hydroxybutyl)piperidin-2,2,6,6-d4-1-yl)methyl)benzo[5,6]oxepino[4,3-b]benzofuran-7(5H)-one hydrochloride] was 0.0156 µg/mL; that for `[2H]c1c(O)c(C([2H])([2H])N2C([2H])([2H])CC(C(O)CCC)CC2([2H])[2H])c2c3c(oc2c1[2H])-c1ccc(O)cc1C([2H])([2H])OC3=O` (stereo not shown) [YF045, 3,9-Dihydroxy-8-((4-(1-hydroxybutyl)piperidin-2,2,6,6-d4-1-yl)methyl-d2)benzo[5,6]oxepino[4,3-b]benzofuran-7(5H)-one-5,5,10,11-d4 hydrochloride] was 0.0156 µg/mL.
